Results published in ChEMBL document CHEMBL1201862, “PubChem BioAssay data set” (2004).
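A five-concentration, 48-hour dose response in 96-well plates underlies each endpoint, interpolated linearly between surrounding concentrations. GI50: concentration for 50% inhibition of growth.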 Active and inactive are the calls of the source. Rule as the data show it: active = GI50 up to about 1.1 µM and inactive = higher.

Columns and labels:
Experiment in all cases: DTP human tumour cell line panel, 48 h
SR = system: SR
T47D = system: T47D
NCI-H23 = system: NCI-H23
SF-268 = system: SF-268
NCI/ADR-RES = system: NCI/ADR-RES
SK-MEL-5 = system: SK-MEL-5
U-251 = system: U-251
IGROV-1 = system: IGROV-1
NCI-H226 = system: NCI-H226
COLO 205 = system: COLO 205
RPMI-8226 = system: RPMI-8226
HT-29 = system: HT-29
OVCAR-3 = system: OVCAR-3
MOLT-4 = system: MOLT-4
ACHN = system: ACHN
SNB-75 = system: SNB-75
SF-295 = system: SF-295
Malme-3M = system: Malme-3M
TK-10 = system: TK-10
EKVX = system: EKVX

| SMILES | GI50 (SR) | GI50 (T47D) | GI50 (NCI-H23) | GI50 (SF-268) | GI50 (NCI/ADR-RES) | GI50 (SK-MEL-5) | GI50 (U-251) | GI50 (IGROV-1) | GI50 (NCI-H226) | GI50 (COLO 205) | GI50 (RPMI-8226) | GI50 (HT-29) | GI50 (OVCAR-3) | GI50 (MOLT-4) | GI50 (ACHN) | GI50 (SNB-75) | GI50 (SF-295) | GI50 (Malme-3M) | GI50 (TK-10) | GI50 (EKVX) |
| --- | --- | --- | --- | --- | --- | --- | --- | --- | --- | --- | --- | --- | --- | --- | --- | --- | --- | --- | --- | --- |
| Oc1c(Cl)cc2cc1-c1cc(cc(Cl)c1O)CCc1c(cc(Cl)c(O)c1Cl)-c1cc(Cl)c(c(Cl)c1O)/C=C\2 | 3.91 µM (inactive) | 8.41 µM (inactive) | 13.3 µM (inactive) | 8.43 µM (inactive) | 13.7 µM (inactive) | 8.17 µM (inactive) | 11.6 µM (inactive) | 8.99 µM (inactive) | 11.5 µM (inactive) | 8.24 µM (inactive) | 22.1 µM (inactive) | 11.4 µM (inactive) | 7.4 µM (inactive) | 30.2 µM (inactive) | 13.7 µM (inactive) | 9.02 µM (inactive) | – | – | – | – |
| COc1cc2c(cc1OCCCC(=O)Nc1cc(C(=O)NCCCN(C)C)n(C)n1)N=CC1CCCN1C2=O (stereo unspecified) | 0.213 µM (active) | 9.66 µM (inactive) | 11.5 µM (inactive) | 16.2 µM (inactive) | > 33.5 µM (inactive) | 5.68 µM (inactive) | 8.77 µM (inactive) | 6.7 µM (inactive) | – | 8.93 µM (inactive) | 5.66 µM (inactive) | 7.31 µM (inactive) | 27.5 µM (inactive) | 0.347 µM (active) | 6.44 µM (inactive) | 7.85 µM (inactive) | > 100 µM (inactive) | 6.97 µM (inactive) | 7.4 µM (inactive) | > 47.4 µM (inactive) |
| COc1ccccc1NC(=S)N/N=C(/C)c1ccccn1 | – | < 0.01 µM (active) | < 0.0185 µM (active) | < 0.0124 µM (active) | < 0.01 µM (active) | < 0.041 µM (active) | < 0.0172 µM (active) | < 0.01 µM (active) | – | < 0.0119 µM (active) | < 0.01 µM (active) | < 0.01 µM (active) | < 0.01 µM (active) | < 0.01 µM (active) | < 0.0106 µM (active) | 1.45 µM (inactive) | 0.0771 µM (active) | 0.0789 µM (active) | 0.0644 µM (active) | 0.268 µM (active) |
| COC(=O)C1=C(C)C=C(N2CCOCC2)C(C(=O)OC)C1c1ccccc1 (stereo unspecified) | – | > 10 µM (inactive) | > 10 µM (inactive) | > 10 µM (inactive) | > 10 µM (inactive) | > 10 µM (inactive) | > 10 µM (inactive) | > 10 µM (inactive) | > 10 µM (inactive) | > 10 µM (inactive) | > 10 µM (inactive) | > 10 µM (inactive) | > 10 µM (inactive) | > 10 µM (inactive) | > 10 µM (inactive) | > 10 µM (inactive) | > 10 µM (inactive) | > 10 µM (inactive) | > 10 µM (inactive) | > 10 µM (inactive) |
| CC1=NN(C(=O)CC(=O)Nc2ccccc2)C(=O)C1/N=N/c1ccc(C(=O)O)cc1 (stereo unspecified) | 50.6 µM (inactive) | 62.7 µM (inactive) | > 100 µM (inactive) | 77.8 µM (inactive) | > 100 µM (inactive) | > 100 µM (inactive) | 97.3 µM (inactive) | > 100 µM (inactive) | – | > 100 µM (inactive) | > 100 µM (inactive) | > 100 µM (inactive) | > 100 µM (inactive) | > 100 µM (inactive) | > 100 µM (inactive) | > 100 µM (inactive) | > 100 µM (inactive) | > 100 µM (inactive) | > 100 µM (inactive) | > 100 µM (inactive) |
| [N-]=[N+]=C(C(=O)OCC#CCOC(=O)C(=[N+]=[N-])S(=O)(=O)c1ccccc1)S(=O)(=O)c1ccccc1 | – | > 10 µM (inactive) | > 10 µM (inactive) | > 10 µM (inactive) | > 10 µM (inactive) | > 10 µM (inactive) | > 10 µM (inactive) | > 10 µM (inactive) | > 10 µM (inactive) | > 10 µM (inactive) | > 10 µM (inactive) | > 10 µM (inactive) | > 10 µM (inactive) | > 10 µM (inactive) | > 10 µM (inactive) | > 10 µM (inactive) | > 10 µM (inactive) | > 10 µM (inactive) | > 10 µM (inactive) | > 10 µM (inactive) |
| CCOP(=O)(OCC)/C(=C\n1c(=S)[nH]c2cc(C)ccc21)C(=O)OC | – | > 100 µM (inactive) | > 100 µM (inactive) | > 100 µM (inactive) | > 100 µM (inactive) | > 100 µM (inactive) | > 100 µM (inactive) | > 100 µM (inactive) | > 100 µM (inactive) | > 100 µM (inactive) | – | > 100 µM (inactive) | > 100 µM (inactive) | > 100 µM (inactive) | > 100 µM (inactive) | > 100 µM (inactive) | > 100 µM (inactive) | – | > 100 µM (inactive) | 45.8 µM (inactive) |
| c1ccc2cc(OCC3CO3)c(OCC3CO3)cc2c1 (stereo unspecified) | 0.333 µM (active) | 10.9 µM (inactive) | 2.72 µM (inactive) | 0.891 µM (active) | 4.05 µM (inactive) | 9.23 µM (inactive) | 2.9 µM (inactive) | 1.3 µM (inactive) | – | 12.8 µM (inactive) | 1.92 µM (inactive) | 7.05 µM (inactive) | 13.4 µM (inactive) | 0.562 µM (active) | 2.18 µM (inactive) | 4.84 µM (inactive) | 2.21 µM (inactive) | 7.64 µM (inactive) | 12.1 µM (inactive) | 11.4 µM (inactive) |
